The results in this text go back to PMC11628255, “Interference of metal ions on the bioluminescent signal of firefly, Renilla, and NanoLuc luciferases in high-throughput screening assays” (Frontiers in Chemistry, 2024).

This experiment concerns the target T1, firefly luciferase enzyme (FLuc) (Photinus pyralis, UniProt P08659).
T1 construct: commercial purified enzyme (Promega E1701)
The experiment is described as follows: bioluminescence read-out, 384-well plate. Conditions: 10 µM ATP with 10 µM D-luciferin, 5 mM MgSO4; ATP and Mg needed for signal. Type of experiment: biochemical.

T1 sequence (P08659 whole entry): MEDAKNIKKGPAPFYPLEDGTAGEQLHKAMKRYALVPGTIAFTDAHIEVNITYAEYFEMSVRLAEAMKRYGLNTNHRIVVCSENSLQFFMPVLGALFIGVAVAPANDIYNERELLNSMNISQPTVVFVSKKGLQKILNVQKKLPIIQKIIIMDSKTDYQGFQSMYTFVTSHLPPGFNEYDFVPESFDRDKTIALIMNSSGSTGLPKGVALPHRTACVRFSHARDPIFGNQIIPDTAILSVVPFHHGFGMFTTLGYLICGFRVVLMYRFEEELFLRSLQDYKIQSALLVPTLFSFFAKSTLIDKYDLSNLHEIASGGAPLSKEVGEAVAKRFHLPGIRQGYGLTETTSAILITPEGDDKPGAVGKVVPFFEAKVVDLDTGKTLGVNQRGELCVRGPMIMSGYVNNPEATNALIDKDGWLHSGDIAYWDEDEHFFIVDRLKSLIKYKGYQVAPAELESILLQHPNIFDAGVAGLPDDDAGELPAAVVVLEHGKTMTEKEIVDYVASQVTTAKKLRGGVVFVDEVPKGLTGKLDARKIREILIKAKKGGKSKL

`Nc1ncnc2c1ncn2[C@@H]1O[C@H](COP(=O)(O)OP(=O)(O)OP(=O)(O)O)[C@@H](O)[C@H]1O` [ATP]: the “bioluminescence read-out, 384-well plate” value is “both ATP and Mg still need to be present in the FLuc reaction buffer”.
